Data: patent publication US20230357179A1, “RAF KINASE INHIBITORS AND METHODS OF USE THEREOF” (Deciphera Pharmaceuticals, LLC, priority 2021, published 2023)

How the values were obtained:
C-Raf kinase [1] = target: T1, C-Raf kinase (Homo sapiens, UniProt P04049, Y340D/Y341D); test: Biochemical assay for C-Raf.2 (coupled pyruvate kinase/lactate dehydrogenase); settings: read-out: CRAF.2 IC50
T1 construct: Y340D,; GST (N); purchased Sigma
Description: Biochemical Assay for C-Raf.2
Activity of C-Raf kinase (SEQ. ID NO: 3) was determined spectroscopically using a coupled pyruvate kinase/lactate dehydrogenase assay that continuously monitors the ATP hydrolysis-dependent oxidation of NADH (e.g., Schindler et al., Science, 2000, 289, 1938-1942). Assays were conducted in 384-well plates (25 μL final volume) using 3.84 nM C-Raf (Eurofins), 1.5 units pyruvate kinase, 2.1 units lactate dehydrogenase, 1 mM phosphoenol pyruvate, 0.7 mM NADH, 50 nM MEK (SignalChem), and 1 mM ATP in assay buffer (100 mM Tris, pH 7.5, 15 mM MgCl2, 0.5 mM DTT, 0.1% octyl-glucoside, 0.002% (w/v) BSA, and 0.002% Triton X-100). Inhibition of C-Raf was measured by adding serial diluted test compound (final assay concentration of 1% DMSO). A decrease in absorption at 340 nm was monitored hourly for 4 h at 30° C. on a multi-mode microplate reader (BioTek). The reaction rate was calculated using the 2 to 3 h time frame. The reaction rate at each concentration of compound was converted to percent inhibition using controls (i.e., reaction with no test compound and reaction with a known inhibitor) and IC50 values were calculated by fitting a four-parameter sigmoidal curve to the data using Prism (GraphPad software).

B-Raf (V600E) kinase = target: T2, B-Raf (V600E) kinase (Homo sapiens, UniProt P15056, V600E); test: Biochemical assay for B-Raf (V600E).2 (coupled pyruvate kinase/lactate dehydrogenase); settings: read-out: BRAF V600E.2 IC50
T2 construct: B-Raf (V600E) residues 416-766 with a; GST (N); purchased SignalChem
T2 sequence (P15056 416-766 V600E): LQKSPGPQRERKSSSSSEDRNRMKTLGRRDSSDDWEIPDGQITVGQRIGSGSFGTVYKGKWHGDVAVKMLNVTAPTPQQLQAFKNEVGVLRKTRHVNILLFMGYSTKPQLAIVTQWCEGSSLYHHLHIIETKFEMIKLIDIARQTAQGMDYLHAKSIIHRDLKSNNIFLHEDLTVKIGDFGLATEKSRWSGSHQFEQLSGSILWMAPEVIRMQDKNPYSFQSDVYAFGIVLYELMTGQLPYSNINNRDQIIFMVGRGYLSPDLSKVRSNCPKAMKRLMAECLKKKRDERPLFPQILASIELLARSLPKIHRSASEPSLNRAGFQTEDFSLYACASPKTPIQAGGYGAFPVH
Description: Biochemical Assay for B-Raf (V600E).2
Activity of B-Raf (V600E) (SEQ. ID NO: 4) kinase was determined spectroscopically using a coupled pyruvate kinase/lactate dehydrogenase assay that continuously monitors the ATP hydrolysis-dependent oxidation of NADH (e.g., Schindler et al., Science, 2000, 289, 1938-1942). Assays were conducted in 384-well plates (25 μL final volume) using 0.5 nM B-Raf (deCode), 1.5 units pyruvate kinase, 2.1 units lactate dehydrogenase, 1 mM phosphoenol pyruvate, 0.7 mM NADH, 100 nM MEK (SignalChem), and 1 mM ATP in assay buffer (100 mM Tris, pH 7.5, 15 mM MgCl2, 0.5 mM DTT, 0.1% octyl-glucoside, 0.002% (w/v) BSA, and 0.002% Triton X-100). Inhibition of B-Raf (V600E) was measured by adding serial diluted test compound (final assay concentration of 1% DMSO). A decrease in absorption at 340 nm was monitored hourly for 4 h at 30° C. on a multi-mode microplate reader (BioTek). The reaction rate was calculated using the 3 to 4 h time frame. The reaction rate at each concentration of compound was converted to percent inhibition using controls (i.e., reaction with no test compound and reaction with a known inhibitor) and IC50 values were calculated by fitting a four-parameter sigmoidal curve to the data using Prism (GraphPad software).

C-Raf kinase [2] = target: T1, C-Raf kinase; test: Biochemical assay for C-Raf.1 (coupled pyruvate kinase/lactate dehydrogenase); settings: read-out: CRAF.1 IC50
Method in brief: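 C-Raf (0.43 nM) with MEK 30.1 nM and 1 mM ATP in Tris pH 7.5/MgCl2 buffer, activity coupled via PK/LDH to NADH oxidation (A340), 6 h at 30° C. Rates from 4–5 h window converted to % inhibition versus controls; IC50 by four-parameter fit, 1% DMSO.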

Miapaca-2 cells = test: MiaPaca-2 cell proliferation assay (1), resazurin, 96-well; format: cell-based; settings: Homo sapiens, MIA PaCa-2, inhibition of cell proliferation
Method in brief: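 Three thousand cells per well in DMEM with 10% FBS and 2.5% horse serum exposed to serially diluted compound in triplicate for 67-72 h at 37 °C, 5% CO2. Viability by resazurin (additional 5-6 h), fluorescence ex 540/em 600 nm; IC50 calculated.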

T1 sequence (P04049 307-648 Y340D/Y341D): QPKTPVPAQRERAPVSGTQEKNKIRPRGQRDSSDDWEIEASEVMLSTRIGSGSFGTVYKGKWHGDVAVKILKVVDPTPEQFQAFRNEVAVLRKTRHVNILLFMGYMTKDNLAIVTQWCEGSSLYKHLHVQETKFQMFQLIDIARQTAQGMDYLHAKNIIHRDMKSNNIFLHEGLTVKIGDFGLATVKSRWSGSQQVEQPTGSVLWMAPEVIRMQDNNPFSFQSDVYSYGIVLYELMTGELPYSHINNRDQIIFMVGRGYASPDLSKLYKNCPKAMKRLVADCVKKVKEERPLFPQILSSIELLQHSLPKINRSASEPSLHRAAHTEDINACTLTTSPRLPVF

| IC50 (C-Raf kinase [1]) [µM] | IC50 (B-Raf (V600E) kinase) [µM] | IC50 (C-Raf kinase [2]) [µM] | IC50 (Miapaca-2 cells) [µM] | SMILES |
| --- | --- | --- | --- | --- |
| 0.1 to 0.5 | ≤ 0.1 |  |  | CNC(=O)c1cc(-c2cncc(-c3cc(NC(=O)N4CC[C@H](C(C)C)C4)ccc3C)c2)ncn1 [Example 226] |
|  |  | > 1 | 1 to 10 | Cc1cc(F)c(NC(=O)NCC[C@@H]2CCO2)cc1-c1cc(OCCO)nc(-c2ccnc3[nH]ncc23)c1 [Example 89] |
|  |  | ≤ 0.1 | 0.5 to 1 | COC(=O)Nc1cc(-c2cccc(-c3cc(NC(=O)NCCC(C)(C)OC)c(F)cc3C)c2)ccn1 [Example 85] |
|  |  | 0.1 to 0.5 | 1 to 10 | Cc1cc(F)c(NC(=O)N[C@@H]2CC[C@H](F)C2)cc1-c1cc(OCCO)nc(-c2ccnc3[nH]ncc23)c1 [Example 88] |
| ≤ 0.1 | ≤ 0.1 |  |  | Cc1ccc(NC(=O)N2CC[C@H](C)C2)cc1-c1cncc(-c2cc(NC(=O)C3CC3)ncn2)c1 [Example 227] |
|  |  | 0.1 to 0.5 | 1 to 10 | Cc1cc(F)c(NC(=O)N2CCC(C)(C#N)CC2)cc1-c1cc(OCCO)nc(-c2ccnc3[nH]ncc23)c1 [Example 92] |
|  |  | ≤ 0.1 | 1 to 10 | Cc1cc(F)c(NC(=O)NCCC2(C)CC2)cc1-c1cc(OCCO)nc(-c2ccnc3[nH]ncc23)c1 [Example 87] |
|  |  | ≤ 0.1 | 1 to 10 | COC(C)(C)CCNC(=O)Nc1cc(-c2cc(OCCO)nc(-c3ccnc4[nH]ccc34)c2)c(C)cc1F [Example 90] |
| 0.1 to 0.5 | ≤ 0.1 |  |  | CNC(=O)c1cc(-c2cc(-c3cc(NC(=O)N4CC[C@H](C(C)C)C4)ccc3C)ccn2)ccn1 [Example 225] |
| ≤ 0.1 | ≤ 0.1 |  |  | CNC(=O)c1cc(-c2cncc(-c3cc(NC(=O)N4CC[C@H](C(C)C)C4)ccc3C)c2)ccn1 [Example 229] |
|  |  | ≤ 0.1 | 1 to 10 | COC(C)(C)CCNC(=O)Nc1cc(-c2cc(OCCO)nc(-c3ccnc4[nH]ncc34)c2)c(C)cc1F [Example 91] |
| 0.1 to 0.5 | 0.1 to 0.5 |  | 1 to 10 | CNC(=O)c1cc(-c2cncc(-c3cc(NC(=O)N4CC[C@H](C(F)(F)F)C4)ccc3C)c2)ncn1 [Example 220] |
| 0.1 to 0.5 | ≤ 0.1 |  |  | CNC(=O)c1cc(-c2cncc(-c3cc(NC(=O)N4CC[C@H](C(F)(F)F)C4)ccc3C)c2)ccn1 [Example 228] |
| ≤ 0.1 | 0.1 to 0.5 |  |  | CNC(=O)c1cc(-c2cc(-c3cc(NC(=O)N4CC[C@H](C(F)(F)F)C4)ccc3C)ccn2)ccn1 [Example 215] |
| ≤ 0.1 | ≤ 0.1 |  |  | COC(=O)Nc1cc(-c2cncc(-c3cc(NC(=O)N4CC[C@H](C(F)(F)F)C4)ccc3C)c2)ncn1 [Example 224] |
